# Test results taken from US12077503B2, “Substituted cyclic amides and their use as herbicides” (FMC CORPORATION, priority 2015, dated 2024).
# What was measured:
# Format in all cases: in vivo
# [1] = tested on: ryegrass, Italian (Italian ryegrass, Lolium multiflorum); test: Test A postemergence
# Outline: (§1)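 Visual injury scores from 0, no effect, to 100, complete control, were assigned versus untreated controls roughly 10 d after treatment in the greenhouse. Test chemicals, formulated with surfactant in a non-phytotoxic solvent, were applied to planted seeds as a preemergence soil spray or postemergence to one- to two-leaf plants 2 to 10 cm tall, in loam–sand soil.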
# [2] = tested on: wheat (Triticum aestivum); test: Test A postemergence
# Outline: as §1
# [3] = tested on: Galium (catchweed bedstraw, Galium aparine); test: Test A postemergence
# Outline: as §1
# [4] = tested on: ragweed (common ragweed, Ambrosia elatior); test: Test A postemergence
# Outline: as §1
# [5] = tested on: blackgrass (Alopecurus myosuroides); test: Test A postemergence
# Outline: as §1
# [6] = tested on: pigweed (Amaranthus retroflexus); test: Test A postemergence
# Outline: as §1
# [7] = tested on: barnyardgrass (Echinochloa crus-galli); test: Test A postemergence
# Outline: as §1
# [8] = tested on: giant foxtail (Setaria faberii); test: Test A postemergence
# Outline: as §1
# Kochia (Kochia scoparia) [9] = test: Test A postemergence
# Outline: as §1
# corn (Zea mays) = test: Test A postemergence
# Outline: as §1
# [10] = tested on: ryegrass, Italian (Italian ryegrass, Lolium multiflorum); test: Test A preemergence
# Outline: as §1
# [11] = tested on: ragweed (common ragweed, Ambrosia elatior); test: Test A preemergence
# Outline: as §1
# [12] = tested on: pigweed (Amaranthus retroflexus); test: Test A preemergence
# [13] = tested on: barnyardgrass (Echinochloa crus-galli); test: Test A preemergence
# Outline: as §1
# [14] = tested on: giant foxtail (Setaria faberii); test: Test A preemergence
# Outline: as §1
# Kochia (Kochia scoparia) [15] = test: Test A preemergence
# Outline: as §1
# rice (Oryra sativa) = test: Test B flooded paddy test; settings: 250 g ai/ha, Flood, 0 to 100 scale where 0 is no effect and 100 is complete control; for Plant response rating, Rice: 13 to 15 d
# Outline: (§2)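 Response scored visually against untreated controls, 0 = no effect and 100 = complete control, 13–15 d after treatment in the greenhouse. Compounds added to paddy water held 3 cm above soil surface. Treatment given at 2-leaf stage.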
# [16] = tested on: ducksalad (Heteranthera limosa); test: Test B flooded paddy test; settings: 250 g ai/ha, Flood, 0 to 100 scale where 0 is no effect and 100 is complete control; for Plant response rating, Ducksalad: 13 to 15 d
# Outline: as §2
# [17] = tested on: sedge, umbrella (small-flower umbrella sedge, Cyperus difformis); test: Test B flooded paddy test; settings: 250 g ai/ha, Flood, 0 to 100 scale where 0 is no effect and 100 is complete control; for Plant response rating, Sedge, Umbrella: 13 to 15 d
# Outline: as §2
# [18] = tested on: barnyardgrass (Echinochloa crus-galli); test: Test B flooded paddy test; settings: 250 g ai/ha, Flood, 0 to 100 scale where 0 is no effect and 100 is complete control; for Plant response rating, Barnyardgrass: 13 to 15 d
# Outline: as §2
# [19] = 125 g ai/ha, Postemergence, visual injury after approximately 10 d, 0 to 100 scale where 0 is no effect and 100 is complete control
# [20] = 500 g ai/ha, postemergence, visual injury, 0 to 100 scale (0 no effect, 100 complete control), approx. 10 d
# [21] = 125 g ai/ha, Preemergence, visual injury rating after approximately 10 d
# [22] = 500 g ai/ha, preemergence, visual injury rating about 10 d after treatment, 0 to 100 scale (0 no effect, 100 complete control)
# [23] = 125 g ai/ha, postemergence, visual injury rating on 0 to 100 scale (0 no effect, 100 complete control), approx. 10 d
# [24] = Postemergence, 500 g ai/ha, 0 to 100 scale where 0 is no effect and 100 is complete control
# [25] = 125 g ai/ha, Preemergence, visual injury after approximately 10 d, 0 to 100 scale where 0 is no effect and 100 is complete control
# [26] = Preemergence, 500 g ai/ha, visual injury approx. 10 d
# [27] = 125 g ai/ha, postemergence, visual rating after approx. 10 d, 0 to 100 scale (0 no effect, 100 complete control)
# [28] = 500 g ai/ha, preemergence, 0 to 100 scale, 0 = no effect, 100 = complete control
structure (smiles),measurement,setting,value
Cc1ccc([C@H]2CN(C)C(=O)[C@@H]2C(=O)Nc2ccccc2[S+](C)[O-])cc1Cl (stereo partly drawn) [Compound 1017],"Plant response rating, Ryegrass, Italian",[1]; [19],30
same,"Plant response rating, Ryegrass, Italian",[1]; [20],50
same,"Plant response rating, Wheat",[2]; [19],20
same,"Plant response rating, Wheat",[2]; [20],60
same,"Plant response rating, Galium",[3]; [19],40
same,"Plant response rating, Galium",[3]; [20],70
same,"Plant response rating, Ragweed",[4]; [19],0
same,"Plant response rating, Ragweed",[4]; [20],40
same,"Plant response rating, Blackgrass",[5]; [19],0
same,"Plant response rating, Blackgrass",[5]; [20],40
same,"Plant response rating, Pigweed",[6]; [19],0
same,"Plant response rating, Pigweed",[6]; [20],40
same,"Plant response rating, Barnyardgrass",[7]; [19],90
same,"Plant response rating, Barnyardgrass",[7]; [20],90
same,"Plant response rating, Foxtail, Giant",[8]; [19],90
same,"Plant response rating, Foxtail, Giant",[8]; [20],90
same,"Plant response rating, Kochia",Kochia (Kochia scoparia) [9]; [19],40
same,"Plant response rating, Kochia",Kochia (Kochia scoparia) [9]; [20],60
same,"Plant response rating, Corn",corn (Zea mays); [19],80
same,"Plant response rating, Corn",corn (Zea mays); [20],90
same,"Ryegrass, Italian plant response rating (0 to 100 scale, 0 is no effect, 100 is complete control)",[10]; [21],0
same,"Ryegrass, Italian plant response rating",[10]; [22],70
same,"Ragweed plant response rating (0 to 100 scale, 0 is no effect, 100 is complete control)",[11]; [21],0
same,Ragweed plant response rating,[11]; [22],90
same,"Pigweed plant response rating (0 to 100 scale, 0 is no effect, 100 is complete control)",[12]; [21],50
same,Pigweed plant response rating,[12]; [22],60
same,"Barnyardgrass plant response rating (0 to 100 scale, 0 is no effect, 100 is complete control)",[13]; [21],90
same,Barnyardgrass plant response rating,[13]; [22],90
same,"Foxtail, Giant plant response rating (0 to 100 scale, 0 is no effect, 100 is complete control)",[14]; [21],90
same,"Foxtail, Giant plant response rating",[14]; [22],90
same,"Kochia plant response rating (0 to 100 scale, 0 is no effect, 100 is complete control)",Kochia (Kochia scoparia) [15]; [21],0
same,Kochia plant response rating,Kochia (Kochia scoparia) [15]; [22],70
same,Rice plant response rating,rice (Oryra sativa),30
same,Ducksalad plant response rating,[16],90
same,"Sedge, Umbrella plant response rating",[17],0
same,Barnyardgrass plant response rating,[18],70
O=C1NCC(c2ccc(C(F)(F)F)c(F)c2)C1C(=O)Nc1cccc(F)c1F (racemic) [Compound 504],"Ryegrass, Italian plant response rating",[1]; [23],40
same,"Plant response rating, Ryegrass, Italian",[1]; [24],40
same,Wheat plant response rating,[2]; [23],20
same,"Plant response rating, Wheat",[2]; [24],60
same,Galium plant response rating,[3]; [23],70
same,"Plant response rating, Galium",[3]; [24],70
same,Ragweed plant response rating,[4]; [23],30
same,"Plant response rating, Ragweed",[4]; [24],40
same,Blackgrass plant response rating,[5]; [23],40
same,"Plant response rating, Blackgrass",[5]; [24],60
same,Pigweed plant response rating,[6]; [23],60
same,"Plant response rating, Pigweed",[6]; [24],70
same,Barnyardgrass plant response rating,[7]; [23],80
same,"Plant response rating, Barnyardgrass",[7]; [24],90
same,"Foxtail, Giant plant response rating",[8]; [23],90
same,"Plant response rating, Foxtail, Giant",[8]; [24],90
same,Kochia plant response rating,Kochia (Kochia scoparia) [9]; [23],30
same,"Plant response rating, Kochia",Kochia (Kochia scoparia) [9]; [24],60
same,Corn plant response rating,corn (Zea mays); [23],70
same,"Plant response rating, Corn",corn (Zea mays); [24],70
same,"Plant response rating, Ryegrass, Italian",[10]; [25],40
same,"Ryegrass, Italian plant response rating (0 to 100 scale, 0 is no effect, 100 is complete control)",[10]; [26],70
same,"Plant response rating, Ragweed",[11]; [25],40
same,"Ragweed plant response rating (0 to 100 scale, 0 is no effect, 100 is complete control)",[11]; [26],50
same,"Plant response rating, Pigweed",[12]; [25],80
same,"Pigweed plant response rating (0 to 100 scale, 0 is no effect, 100 is complete control)",[12]; [26],100
same,"Plant response rating, Barnyardgrass",[13]; [25],90
same,"Barnyardgrass plant response rating (0 to 100 scale, 0 is no effect, 100 is complete control)",[13]; [26],90
same,"Plant response rating, Foxtail, Giant",[14]; [25],90
same,"Foxtail, Giant plant response rating (0 to 100 scale, 0 is no effect, 100 is complete control)",[14]; [26],90
same,"Plant response rating, Kochia",Kochia (Kochia scoparia) [15]; [25],80
same,"Kochia plant response rating (0 to 100 scale, 0 is no effect, 100 is complete control)",Kochia (Kochia scoparia) [15]; [26],80
same,"Plant response rating, Rice",rice (Oryra sativa),0
same,"Plant response rating, Ducksalad",[16],80
same,"Plant response rating, Sedge, Umbrella",[17],0
same,"Plant response rating, Barnyardgrass",[18],40
O=C1NCC(c2csc(Br)c2)C1C(=O)Nc1cccc(F)c1F (racemic) [Compound 649],"Plant response rating, Ryegrass, Italian",[1]; [27],30
same,"Plant response rating, Ryegrass, Italian",[1]; [20],40
same,"Plant response rating, Wheat",[2]; [27],0
same,"Plant response rating, Wheat",[2]; [20],0
same,"Plant response rating, Galium",[3]; [27],50
same,"Plant response rating, Galium",[3]; [20],70
same,"Plant response rating, Ragweed",[4]; [27],20
same,"Plant response rating, Ragweed",[4]; [20],60
same,"Plant response rating, Blackgrass",[5]; [27],20
same,"Plant response rating, Blackgrass",[5]; [20],60
same,"Plant response rating, Pigweed",[6]; [27],0
same,"Plant response rating, Pigweed",[6]; [20],30
same,"Plant response rating, Barnyardgrass",[7]; [27],60
same,"Plant response rating, Barnyardgrass",[7]; [20],70
same,"Plant response rating, Foxtail, Giant",[8]; [27],30
same,"Plant response rating, Foxtail, Giant",[8]; [20],60
same,"Plant response rating, Kochia",Kochia (Kochia scoparia) [9]; [27],30
same,"Plant response rating, Kochia",Kochia (Kochia scoparia) [9]; [20],60
same,"Plant response rating, Corn",corn (Zea mays); [27],0
same,"Plant response rating, Corn",corn (Zea mays); [20],0
same,"Plant response rating, Ryegrass, Italian",[10]; [25],30
same,"Plant response rating, Ryegrass, Italian",[10]; [28],70
same,"Plant response rating, Ragweed",[11]; [25],20
same,"Plant response rating, Ragweed",[11]; [28],70
same,"Plant response rating, Pigweed",[12]; [25],50
same,"Plant response rating, Pigweed",[12]; [28],60
same,"Plant response rating, Barnyardgrass",[13]; [25],80
same,"Plant response rating, Barnyardgrass",[13]; [28],90
same,"Plant response rating, Foxtail, Giant",[14]; [25],50
same,"Plant response rating, Foxtail, Giant",[14]; [28],70
same,"Plant response rating, Kochia",Kochia (Kochia scoparia) [15]; [25],60
same,"Plant response rating, Kochia",Kochia (Kochia scoparia) [15]; [28],70
same,"Plant response rating, Rice",rice (Oryra sativa),0
same,"Plant response rating, Ducksalad",[16],100
same,"Plant response rating, Sedge, Umbrella",[17],0
same,"Plant response rating, Barnyardgrass",[18],60
CN1CC(c2cccc(OC(F)F)c2)C(C)(C(=O)Nc2cccc(F)c2F)C1=O (stereo not drawn) [Compound 619],"Plant response rating, Ryegrass, Italian",[1]; [27],0
same,"Plant response rating, Ryegrass, Italian",[1]; [24],0
same,"Plant response rating, Wheat",[2]; [27],0
same,"Plant response rating, Wheat",[2]; [24],0
same,"Plant response rating, Galium",[3]; [27],0
same,"Plant response rating, Galium",[3]; [24],0
same,"Plant response rating, Ragweed",[4]; [27],0
same,"Plant response rating, Ragweed",[4]; [24],0
same,"Plant response rating, Blackgrass",[5]; [27],0
same,"Plant response rating, Blackgrass",[5]; [24],0
same,"Plant response rating, Pigweed",[6]; [27],0
same,"Plant response rating, Pigweed",[6]; [24],0
same,"Plant response rating, Barnyardgrass",[7]; [27],0
same,"Plant response rating, Barnyardgrass",[7]; [24],0
same,"Plant response rating, Foxtail, Giant",[8]; [27],0
same,"Plant response rating, Foxtail, Giant",[8]; [24],0
same,"Plant response rating, Kochia",Kochia (Kochia scoparia) [9]; [27],0
same,"Plant response rating, Kochia",Kochia (Kochia scoparia) [9]; [24],0
same,"Plant response rating, Corn",corn (Zea mays); [27],0
same,"Plant response rating, Corn",corn (Zea mays); [24],0
same,"Plant response rating, Ryegrass, Italian",[10]; [25],0
same,"Plant response rating, Ryegrass, Italian",[10]; [28],0
same,"Plant response rating, Ragweed",[11]; [25],0
same,"Plant response rating, Ragweed",[11]; [28],0
same,"Plant response rating, Pigweed",[12]; [25],0
same,"Plant response rating, Pigweed",[12]; [28],0
same,"Plant response rating, Barnyardgrass",[13]; [25],0
same,"Plant response rating, Barnyardgrass",[13]; [28],0
same,"Plant response rating, Foxtail, Giant",[14]; [25],0
same,"Plant response rating, Foxtail, Giant",[14]; [28],0
same,"Plant response rating, Kochia",Kochia (Kochia scoparia) [15]; [25],20
same,"Plant response rating, Kochia",Kochia (Kochia scoparia) [15]; [28],20
same,"Plant response rating, Rice",rice (Oryra sativa),0
same,"Plant response rating, Ducksalad",[16],0
same,"Plant response rating, Sedge, Umbrella",[17],0
same,"Plant response rating, Barnyardgrass",[18],0
